Reference: US8927500B2, “Peptidomimetic macrocycles” (Aileron Therapeutics, Inc., priority 2012, dated 2015)
pIC50, pKi: −log10 of the molar value. Like-named read-outs stand apart in the source and are kept apart here. Where a SMILES comes first, the peptide text is derived from it. Bridges are numbered along the chain shown (N, C = ends). [ ]: non-standard residue; d: D form. Phe(4-COOH) = N[C@@H](Cc1ccc(C(=O)O)cc1)C(=O)O; Phe(3,4-F2) = N[C@@H](Cc1ccc(F)c(F)c1)C(=O)O; R8 = C=CCCCCCC[C@@](C)(N)C(=O)O; Cba = N[C@@H](CC1CCC1)C(=O)O; S5 = C=CCCC[C@](C)(N)C(=O)O; Nle = CCCC[C@H](N)C(=O)O

Legend:
MDM2 = MDM2 (Homo sapiens, UniProt Q00987); experiment: Competitive fluorescence polarization assay for MDM2; type: binding; conditions: competitive FP assay, MDM2
Chain of MDM2 (Q00987 1-125): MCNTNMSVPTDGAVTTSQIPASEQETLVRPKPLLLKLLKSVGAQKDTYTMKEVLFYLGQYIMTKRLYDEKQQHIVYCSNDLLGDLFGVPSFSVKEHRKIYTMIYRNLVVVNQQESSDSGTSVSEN

MDMX = target: T1, MDMX (Homo sapiens, UniProt O15151); experiment: Competitive fluorescence polarization assay for MDMX; type: binding; conditions: competitive FP assay
T1 sequence (O15151 1-125): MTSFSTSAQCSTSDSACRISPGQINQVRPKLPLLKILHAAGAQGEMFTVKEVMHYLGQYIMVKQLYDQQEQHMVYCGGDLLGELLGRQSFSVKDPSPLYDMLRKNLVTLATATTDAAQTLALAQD

Caspase 3 = Caspase 3 detection assay in SJSA1 cells; type: cell-based; conditions: 48 h, Caspase 3 activation over DMSO-treated cells; for caspase 0.3 uM: 0.3 uM peptide; for caspase 3 uM: 3 uM peptide; for caspase 10 uM: 10 uM peptide; for caspase 30 uM: 30 uM peptide
SJSA-1 cells = experiment: Cell lysis by peptidomimetic macrocycles (LDH release); type: cell-based; conditions: 1 h at 37C

Row | SMILES | pIC50 (MDM2; read-out: IC50 (MDM2)) | pKi (MDM2; read-out: Ki (MDM2)) | pIC50 (MDMX; read-out: IC50 (MDMX)) | pKi (MDMX; read-out: Ki (MDMX)) | caspase 0.3 uM (Caspase 3) | caspase 3 uM (Caspase 3) | caspase 10 uM (Caspase 3) | caspase 30 uM (Caspase 3) | 6.25 uM % Lysed cells (1 h LDH) (SJSA-1 cells) [%] | 25 uM % Lysed cells (1 h LDH) (SJSA-1 cells) [%] | 50 uM % Lysed cells (1 h LDH) (SJSA-1 cells) [%] | pIC50 (MDM2; IC50 (MDM2)) | pKi (MDM2; Ki (MDM2)) | pIC50 (MDMX; IC50 (MDMX)) | pKi (MDMX; Ki (MDMX))
1 | CC(=O)N[C@@H](CCC(=O)O)C(=O)N[C@H](C(=O)N[C@@H](Cc1ccccc1)C(=O)N[C@]1(C)CCCCCCC=CCCC[C@@](C)(C(=O)N[C@@H](CO)C(=O)N[C@@H](C)C(=O)N[C@@H](C)C(N)=O)NC(=O)[C@H](CC(C)C)NC(=O)[C@H](CCC(N)=O)NC(=O)[C@H](C)NC(=O)[C@H](Cc2c[nH]c3ccccc23)NC(=O)[C@H](Cc2ccc(O)cc2)NC(=O)[C@H](CCC(=O)O)NC1=O)[C@@H](C)O [compound 161] (Ac-ETF[R8]EYWAQL[S5]SAA-NH2; staple 4-11) | > 8.00 | > 8.00 | 6.00 to 7.00 | 7.00 to 8.00 | 2 | 8 | 14 | 22 | 1 | −1 | 0 |  |  |  | 
2 | CC[C@H](C)[C@H](NC(=O)[C@H](C)NC(=O)[C@H](C)NC(=O)[C@]1(C)CCCC=CCCCCCC[C@@](C)(NC(=O)[C@H](Cc2ccccc2)NC(=O)[C@@H](NC(=O)[C@H](CC(C)C)NC(C)=O)[C@@H](C)O)C(=O)N[C@@H](C)C(=O)N[C@@H](Cc2c[nH]cn2)C(=O)N[C@@H](Cc2c[nH]c3ccccc23)C(=O)N[C@@H](C)C(=O)N[C@@H](CCC(N)=O)C(=O)N[C@@H](CC(C)C)C(=O)N1)C(=O)N[C@H](C)C(N)=O [compound 170] (Ac-LTF[R8]AHWAQL[S5]AAI[dA]-NH2; staple 4-11) | > 8.00 | > 8.00 | 6.00 to 7.00 | 7.00 to 8.00 | 1 | 1 | 16 | 20 | 2 | 1 | −1 |  |  |  | 
3 | CC[C@H](C)[C@H](NC(C)=O)C(=O)N[C@H](C(=O)N[C@@H](Cc1ccccc1)C(=O)N[C@]1(C)CCCCCCC=CCCC[C@@](C)(C(=O)N[C@@H](C)C(=O)N[C@@H](C)C(=O)N[C@H](C(=O)N[C@H](C)C(N)=O)[C@@H](C)CC)NC(=O)[C@H](CC(C)C)NC(=O)[C@H](CCC(N)=O)NC(=O)[C@H](C(C)C)NC(=O)[C@H](Cc2c[nH]c3ccccc23)NC(=O)[C@H](Cc2ccc(O)cc2)NC(=O)[C@H](Cc2ccccc2)NC1=O)[C@@H](C)O [compound 177] (Ac-ITF[R8]FYWVQL[S5]AAI[dA]-NH2; staple 4-11) | 7.00 to 8.00 | > 8.00 | 6.00 to 7.00 | 7.00 to 8.00 | 1 | 1 | 8 | 20 | −1 | 0 | 1 |  |  |  | 
4 | CC(=O)N[C@@H](CC(C)C)C(=O)N[C@H](C(=O)N[C@@H](Cc1ccccc1)C(=O)N[C@]1(C)CCCCCCC=CCCC[C@@](C)(C(=O)N[C@@H](CO)C(=O)N[C@@H](C)C(=O)N[C@@H](C)C(N)=O)NC(=O)[C@H](CC(C)C)NC(=O)[C@H](C)NC(=O)[C@H](C(C)C)NC(=O)[C@H](Cc2c[nH]c3ccccc23)NC(=O)[C@H](Cc2ccc(O)cc2)NC(=O)[C@H](C)NC1=O)[C@@H](C)O [compound 196] (Ac-LTF[R8]AYWVAL[S5]SAA-NH2; staple 4-11) | 7.00 to 8.00 | > 8.00 | 6.00 to 7.00 | 7.00 to 8.00 | 1 | 4 | 33 | 26 | 0 | 0 | 3 |  |  |  | 
5 | CC(=O)N[C@@H](CC(C)C)C(=O)N[C@H](C(=O)N[C@@H](Cc1ccccc1)C(=O)N[C@]1(C)CCCCCCC=CCCC[C@@](C)(C(=O)N[C@@H](CO)C(=O)N[C@@H](C)C(=O)N[C@@H](C)C(N)=O)NC(=O)[C@H](CC(C)C)NC(=O)[C@H](C)NC(=O)[C@H](C)NC(=O)[C@H](Cc2c[nH]c3ccccc23)NC(=O)[C@H](Cc2c[nH]cn2)NC(=O)[C@H](C)NC1=O)[C@@H](C)O [compound 197] (Ac-LTF[R8]AHWAAL[S5]SAA-NH2; staple 4-11) |  |  |  |  | 1 | 1 | 10 | 20 | 1 | −1 | −2 | > 8.00 | > 8.00 | 6.00 to 7.00 | 7.00 to 8.00
6 | CC(=O)N[C@@H](CC(C)C)C(=O)N[C@H](C(=O)N[C@@H](Cc1ccccc1)C(=O)N[C@]1(C)CCCCCCC=CCCC[C@@](C)(C(=O)N[C@@H](C)C(=O)N[C@@H](Cc2c[nH]cn2)C(=O)N[C@@H](Cc2ccccc2)C(=O)N[C@@H](C)C(N)=O)NC(=O)[C@H](CC(C)C)NC(=O)[C@H](C)NC(=O)[C@H](C)NC(=O)[C@H](Cc2c[nH]c3ccccc23)NC(=O)[C@H](Cc2ccc(O)cc2)NC(=O)[C@H](C)NC1=O)[C@@H](C)O [compound 204] (Ac-LTF[R8]AYWAAL[S5]AHFA-NH2; staple 4-11) | 7.00 to 8.00 | > 8.00 | 6.00 to 7.00 | 7.00 to 8.00 | 1 | 4 | 10 | 10 | 4 | 2 | 0 |  |  |  | 
7 | CCCC[C@H](NC(=O)[C@H](C)NC(=O)[C@H](C)NC(=O)[C@]1(C)CCCC=CCCCCCC[C@@](C)(NC(=O)[C@H](Cc2ccccc2)NC(=O)[C@@H](NC(=O)[C@H](CCC(=O)O)NC(C)=O)[C@@H](C)O)C(=O)N[C@@H](C)C(=O)N[C@@H](Cc2ccc(O)cc2)C(=O)N[C@@H](Cc2c[nH]c3ccccc23)C(=O)N[C@@H](C)C(=O)N[C@@H](CCC(N)=O)C(=O)N[C@@H](CC2CCC2)C(=O)N1)C(=O)N[C@@H](C)C(N)=O [compound 237] (Ac-ETF[R8]AYWAQ[Cba][S5]AA[Nle]A-NH2; staple 4-11) | 7.00 to 8.00 | > 8.00 | 6.00 to 7.00 | 7.00 to 8.00 | 1 | 5 | 9 | 15 | 0 | 7 | 55 |  |  |  | 
8 | CCCC[C@H](NC(=O)[C@H](C)NC(=O)[C@H](CO)NC(=O)[C@]1(C)CCCC=CCCCCCC[C@@](C)(NC(=O)[C@H](Cc2ccc(F)c(F)c2)NC(=O)[C@@H](NC(=O)[C@H](CC(C)C)NC(C)=O)[C@@H](C)O)C(=O)N[C@@H](CCC(=O)O)C(=O)N[C@@H](Cc2ccc(O)cc2)C(=O)N[C@@H](Cc2c[nH]c3ccccc23)C(=O)N[C@@H](C)C(=O)N[C@@H](CCC(N)=O)C(=O)N[C@@H](CC2CCC2)C(=O)N1)C(=O)N[C@@H](C)C(N)=O [compound 243] (Ac-LT[Phe(3,4-F2)][R8]EYWAQ[Cba][S5]SA[Nle]A-NH2; staple 4-11) | 7.00 to 8.00 | > 8.00 | 7.00 to 8.00 | 7.00 to 8.00 | 1 | 2 | 5 | 23 | 4 | 39 | 64 |  |  |  | 
9 | CCCC[C@H](NC(=O)[C@H](C)NC(=O)[C@H](CO)NC(=O)[C@]1(C)CCCC=CCCCCCC[C@@](C)(NC(=O)[C@H](Cc2ccccc2)NC(=O)[C@@H](NC(=O)[C@H](CC(C)C)NC(C)=O)[C@@H](C)O)C(=O)N[C@@H](CCC(=O)O)C(=O)N[C@@H](Cc2ccc(C(=O)O)cc2)C(=O)N[C@@H](Cc2c[nH]c3ccccc23)C(=O)N[C@@H](C)C(=O)N[C@@H](CCC(N)=O)C(=O)N[C@@H](CC2CCC2)C(=O)N1)C(=O)N[C@@H](C)C(N)=O [compound 244] (Ac-LTF[R8]E[Phe(4-COOH)]WAQ[Cba][S5]SA[Nle]A-NH2; staple 4-11) | 7.00 to 8.00 | > 8.00 | 7.00 to 8.00 | > 8.00 | 1 | 2 | 7 | 17 | 0 | 0 | 4 |  |  |  | 
10 | CCCC[C@H](NC(=O)[C@H](C)NC(=O)[C@H](CO)NC(=O)[C@]1(C)CCCC=CCCCCCC[C@@](C)(NC(=O)[C@H](Cc2ccccc2)NC(=O)[C@@H](NC(=O)[C@H](CC(C)C)NC(C)=O)[C@@H](C)O)C(=O)N[C@@H](CCC(=O)O)C(=O)N[C@@H](Cc2ccc(O)cc2)C(=O)N[C@@H](Cc2c[nH]c3ccccc23)C(=O)N[C@@H](CO)C(=O)N[C@@H](CCC(N)=O)C(=O)N[C@@H](CC2CCC2)C(=O)N1)C(=O)N[C@@H](C)C(N)=O [compound 245] (Ac-LTF[R8]EYWSQ[Cba][S5]SA[Nle]A-NH2; staple 4-11) | 7.00 to 8.00 | > 8.00 | 7.00 to 8.00 | 7.00 to 8.00 | 1 | 3 | 9 | 16 | 1 | 11 | 56 |  |  |  | 
